TGI and GI50 data for 21 molecules are collected here from PubChem BioAssay (NCI).

Test systems include TK-10 renal; HT29 colon; NCI-H23 lung; OVCAR-3 ovarian; OVCAR-5 ovarian; UO-31 renal; 786-0 renal; NCI/ADR-RES ovarian; EKVX NSCLC; SN12C renal.
Common to all, as to assay: NCI anticancer screen, dose series, 48 h

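In this assay, cells in 96-well plates receive the compound at five concentrations for 48 hours. Endpoints are linearly interpolated between the surrounding concentrations. Here, GI50 denotes the concentration required for 50% inhibition of growth. The concentration for full growth arrest is given as TGI.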 Where a SMILES comes first, the peptide text is derived from it. Bridges are numbered along the chain shown (N, C = ends). [ ]: non-standard residue; d: D form. The star is where a group is joined. ξ: configuration not given here. X26 = O=C(/C=C/C=C/C=C/C=C/C=C/C(=O)*)NC1=C(O)CCC1=O; NMeA = CN[C@@H](C)C(=O)O; ξF = NC(Cc1ccccc1)C(=O)O; ξA = CC(N)C(=O)O A value given as a limit tells only on which side of the number the result lay.

As to `C[C@]12CC[C@@H]3c4ccc(O)cc4CC[C@H]3[C@@H]1C/C(=C\c1ccncc1)[C@@H]2O`, the TGI with TK-10 renal is over 100 µM; in the test on HT29 colon, over 100 µM; in the test on NCI-H23 lung it was 22.5 µM; in the test with OVCAR-3 ovarian, 30.9 µM; in the test on OVCAR-5 ovarian it was over 100 µM; with UO-31 renal, 52.9 µM. For the same molecule, the TGI in the test on 786-0 renal was 80.9 µM; with NCI/ADR-RES ovarian, 33.5 µM; in the test with EKVX NSCLC, over 100 µM; in the test on SN12C renal, over 100 µM.
In the case of `Nc1ccc(-c2nc3ccccc3s2)cc1C(F)(F)F`, the TGI in the test with TK-10 renal came to 26 µM; in the test with HT29 colon it was 29.1 µM; in the test with NCI-H23 lung, 28 µM; in the test with OVCAR-3 ovarian, 30.2 µM; with OVCAR-5 ovarian, 32.2 µM; in the test on UO-31 renal, 29.4 µM. In addition, the TGI with 786-0 renal is 26.6 µM; in the test on NCI/ADR-RES ovarian, 35.2 µM; in the test with EKVX NSCLC it was 23.9 µM; in the test with SN12C renal, 27.3 µM. Further, the GI50 with OVCAR-5 ovarian was 17.5 µM.
With `CC1NC(=O)[C@H](C)N(C)C(=O)[C@@H]2CCCN2C(=O)[C@@H](NC(=O)C(Cc2ccccc2)NC(=O)/C=C/C=C/C=C/C=C/C=C/C(=O)NC2=C(O)CCC2=O)COC(=O)[C@@H]2CCCN2C1=O` (stereo partly specified) (X26-[ξF]SP[NMeA][ξA]P; ester 2-C), the TGI in the test on TK-10 renal was 92.1 µM; with HT29 colon it was over 100 µM; with NCI-H23 lung, over 100 µM; with OVCAR-3 ovarian it was over 100 µM; in the test with OVCAR-5 ovarian, over 100 µM; in the test on UO-31 renal, over 100 µM. Besides, the TGI in the test on 786-0 renal, in the test with NCI/ADR-RES ovarian, in the test with EKVX NSCLC and in the test on SN12C renal was over 100 µM each time.
`Nc1nc(Cl)cc(NCC2(CO)CCC(CCc3ccccc3)C2)n1` (stereo unspecified): the TGI in the test with TK-10 renal was found to be 48.9 µM; in the test on HT29 colon, 21.4 µM; in the test with NCI-H23 lung, 25.1 µM; in the test with OVCAR-3 ovarian, 28.9 µM; with OVCAR-5 ovarian, 33.1 µM; in the test on UO-31 renal, 33.3 µM. Moreover, the TGI in the test on 786-0 renal is 31.9 µM; in the test on NCI/ADR-RES ovarian, 51.2 µM; in the test on EKVX NSCLC, 25.9 µM; with SN12C renal it was 31.1 µM.
For the molecule `c1csc(-c2ccc(-c3cccs3)c3nsnc23)c1`, the TGI was over 100 µM in the test with TK-10 renal; over 100 µM in the test with HT29 colon; over 68.4 µM with NCI-H23 lung; over 57.4 µM in the test with OVCAR-3 ovarian; over 100 µM in the test on OVCAR-5 ovarian; over 100 µM in the test on UO-31 renal. The TGI in the test on 786-0 renal is over 54 µM; in the test with NCI/ADR-RES ovarian, over 83.7 µM; in the test on EKVX NSCLC it was over 100 µM; in the test on SN12C renal it was over 100 µM.
Take `COC(=O)CN1c2nc(C#N)c(C#N)nc2N(CC(=O)OC)c2nc(C#N)c(C#N)nc21`: the TGI was 6.78 µM in the test on TK-10 renal; 12.1 µM in the test with HT29 colon; over 29.8 µM in the test on NCI-H23 lung; 18.8 µM in the test with OVCAR-3 ovarian; 22.6 µM with OVCAR-5 ovarian; over 25.6 µM in the test on UO-31 renal. Also, the TGI with 786-0 renal is 5.21 µM; with NCI/ADR-RES ovarian it was over 100 µM; with EKVX NSCLC, over 51.3 µM; in the test on SN12C renal, over 100 µM.
With `O=C(O)c1cc(-c2ccc3c(O)c(O)ccc3c2)ccc1O`, the TGI in the test with TK-10 renal was over 75 µM; with HT29 colon, 42.5 µM; in the test on NCI-H23 lung, over 75 µM; in the test with OVCAR-3 ovarian, over 75 µM; in the test with OVCAR-5 ovarian, 26.2 µM; with UO-31 renal it was over 75 µM. Besides, the TGI in the test on 786-0 renal is over 75 µM; in the test with NCI/ADR-RES ovarian, over 75 µM; in the test with EKVX NSCLC, over 75 µM; with SN12C renal, 30.8 µM.
As to `O=C(CNc1c(Cl)cccc1Cl)NC1C=Cc2ccc(S(=O)(=O)Nc3c(Cl)cccc3Cl)cc2C1=O` (stereo unspecified), the TGI with TK-10 renal, with HT29 colon, in the test on NCI-H23 lung, with OVCAR-3 ovarian, with OVCAR-5 ovarian and in the test on UO-31 renal was over 100 µM throughout. The TGI with 786-0 renal, in the test with NCI/ADR-RES ovarian, in the test on EKVX NSCLC and with SN12C renal was over 100 µM in each case.
With `C[C@@H]1S[C@H](c2ccccc2F)N2Cc3ccccc3N=C12`, the TGI was 94.2 µM in the test with TK-10 renal; 86.6 µM in the test on HT29 colon; over 100 µM with NCI-H23 lung; over 100 µM with OVCAR-3 ovarian; over 100 µM in the test on OVCAR-5 ovarian; 54 µM in the test on UO-31 renal. The TGI was 63.1 µM with 786-0 renal, 99.3 µM in the test with NCI/ADR-RES ovarian, 95.9 µM with EKVX NSCLC and 42.2 µM in the test with SN12C renal.
As to `CC(=O)O[C@H]1C(=O)[C@@]2(C)[C@H]([C@H](OC(=O)c3ccc(F)cc3)[C@]3(O)C[C@H](OC(=O)[C@H](O)[C@@H](NC(=O)c4ccccc4)c4ccccc4)C(C)=C1C3(C)C)[C@]1(OC(C)=O)CO[C@@H]1C[C@@H]2O`, the TGI was over 16.1 µM in the test with TK-10 renal; 3.85 µM in the test with HT29 colon; over 25 µM with NCI-H23 lung; 0.0437 µM with OVCAR-3 ovarian; over 11.5 µM in the test with OVCAR-5 ovarian; over 25 µM in the test on UO-31 renal. The TGI in the test on 786-0 renal, in the test on NCI/ADR-RES ovarian, with EKVX NSCLC and in the test on SN12C renal was over 25 µM throughout.
For `O=C(O)C(SC1=NNC2(C(=O)N1)c1ccccc1-c1ccccc12)SC1=NNC2(C(=O)N1)c1ccccc1-c1ccccc12`, the TGI in the test on TK-10 renal, in the test with HT29 colon, with NCI-H23 lung, in the test on OVCAR-3 ovarian, with OVCAR-5 ovarian and in the test on UO-31 renal was over 10 µM in each case. Further, the TGI with 786-0 renal, with NCI/ADR-RES ovarian, in the test on EKVX NSCLC and with SN12C renal was over 10 µM throughout.
With `COC(=O)c1c2c(cc3c1CCC3)CCC2`, the TGI with TK-10 renal, with HT29 colon, in the test with NCI-H23 lung, in the test with OVCAR-3 ovarian, in the test on OVCAR-5 ovarian and with UO-31 renal was over 100 µM throughout. For the same molecule, the TGI with 786-0 renal, with NCI/ADR-RES ovarian, in the test on EKVX NSCLC and in the test with SN12C renal was over 100 µM each time.
In the case of `N/C(=N\S(=O)(=O)c1c(C(F)(F)F)cccc1C(F)(F)F)Nc1ccc(Cl)cc1`, the TGI with TK-10 renal is 65 µM; in the test with HT29 colon it was over 100 µM; in the test with NCI-H23 lung, 30.8 µM; in the test on OVCAR-3 ovarian, over 100 µM; in the test with OVCAR-5 ovarian it was 73.1 µM; with UO-31 renal it was 6.35 µM. The TGI amounted to 74.7 µM in the test with 786-0 renal, 50.1 µM with NCI/ADR-RES ovarian, 36.2 µM in the test with EKVX NSCLC and 78.1 µM in the test on SN12C renal.
With `NNC1=N/C(=C\c2ccco2)C(Cl)=N1`, the TGI with TK-10 renal, in the test on HT29 colon, with NCI-H23 lung, in the test with OVCAR-3 ovarian, with OVCAR-5 ovarian and in the test with UO-31 renal was over 100 µM in each case. In addition, the TGI in the test on 786-0 renal, in the test on NCI/ADR-RES ovarian, in the test with EKVX NSCLC and in the test on SN12C renal was over 100 µM each time.
Turning to `Cc1ccc(OCCn2cc(Nc3ccccc3)c(=O)n(CCOc3ccc(C)cc3)c2=O)cc1`, the TGI in the test with TK-10 renal, in the test with HT29 colon, with NCI-H23 lung, in the test with OVCAR-3 ovarian, in the test with OVCAR-5 ovarian and in the test on UO-31 renal was over 100 µM throughout. Also, the TGI in the test with 786-0 renal, in the test on NCI/ADR-RES ovarian, with EKVX NSCLC and in the test with SN12C renal was over 100 µM each time.
For the molecule `COc1cc(-c2cc(=O)c3cc4c(=O)cc(-c5cc(OC)c(OC)c(OC)c5)oc4cc3o2)cc(OC)c1OC`, the TGI in the test on TK-10 renal is 42.5 µM; in the test on HT29 colon, over 100 µM; with NCI-H23 lung, over 67.8 µM; in the test with OVCAR-3 ovarian, over 100 µM; in the test with OVCAR-5 ovarian, over 100 µM; in the test on UO-31 renal it was over 100 µM. In addition, the TGI in the test with 786-0 renal was 39 µM; in the test with NCI/ADR-RES ovarian, over 100 µM; in the test on EKVX NSCLC it was over 100 µM; in the test on SN12C renal, over 100 µM.
Turning to `CC(O)CCCOC(c1ccccc1)(c1ccccc1)c1ccccc1` (stereo unspecified), the TGI with TK-10 renal turned out to be 30.6 µM; in the test on HT29 colon, 26.2 µM; with NCI-H23 lung it was 27.6 µM; with OVCAR-3 ovarian, 27.3 µM; in the test with OVCAR-5 ovarian it was 30.5 µM; in the test on UO-31 renal, 26.7 µM. In addition, the TGI with 786-0 renal came to 30.3 µM; in the test on NCI/ADR-RES ovarian, 24 µM; with EKVX NSCLC, 28.1 µM; in the test on SN12C renal, 30.6 µM.
In the case of `O=C1NCC(NC(=O)C(F)(F)F)c2c(Br)sc(Br)c21` (stereo unspecified), the TGI with TK-10 renal, with HT29 colon, in the test with NCI-H23 lung, in the test on OVCAR-3 ovarian, with OVCAR-5 ovarian and in the test with UO-31 renal was over 100 µM throughout. For the same molecule, the TGI in the test with 786-0 renal, in the test on NCI/ADR-RES ovarian, in the test on EKVX NSCLC and in the test on SN12C renal was over 100 µM each time.
`CCOC(=O)C(Cl)(Cl)/S(=N\S(=O)(=O)c1ccccc1)NC(=O)c1ccccc1` (stereo unspecified): the TGI in the test with TK-10 renal, with HT29 colon, in the test on NCI-H23 lung, with OVCAR-3 ovarian, in the test on OVCAR-5 ovarian and in the test on UO-31 renal was over 100 µM each time. The TGI with 786-0 renal, in the test on NCI/ADR-RES ovarian, in the test with EKVX NSCLC and in the test on SN12C renal was over 100 µM in each case.
Turning to `O=[N+]([O-])c1ccc(/C=C/c2cc(-c3ccccc3)nc3ccc4ccccc4c23)cc1`, the TGI with TK-10 renal, in the test on HT29 colon, in the test with NCI-H23 lung, with OVCAR-3 ovarian, with OVCAR-5 ovarian and in the test on UO-31 renal was over 100 µM throughout. In addition, the TGI with 786-0 renal, in the test with NCI/ADR-RES ovarian, with EKVX NSCLC and in the test with SN12C renal was over 100 µM throughout.
For the molecule `N#CCc1nc(-c2ccccc2)n[nH]1`, the TGI in the test with TK-10 renal, with HT29 colon, in the test with NCI-H23 lung, in the test with OVCAR-3 ovarian, with OVCAR-5 ovarian and with UO-31 renal was over 100 µM each time. Moreover, the TGI in the test on 786-0 renal, in the test on NCI/ADR-RES ovarian, in the test with EKVX NSCLC and with SN12C renal was over 100 µM throughout.
